Experiment [1] has as its target T1, Bovine trypsin (Bos taurus, UniProt P00760).
T1 construct: purchased Sigma-Aldrich T1426
T1 sequence (P00760 24-246): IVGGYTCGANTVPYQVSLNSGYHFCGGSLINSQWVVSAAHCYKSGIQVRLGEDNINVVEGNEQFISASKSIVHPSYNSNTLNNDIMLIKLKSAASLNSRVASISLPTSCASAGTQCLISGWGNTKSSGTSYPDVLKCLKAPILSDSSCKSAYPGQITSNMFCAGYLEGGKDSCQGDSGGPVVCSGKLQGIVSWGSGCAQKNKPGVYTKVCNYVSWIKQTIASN
The experiment can be described thus: Biochemical Assay of Trypsin (T), H-D-CHA-AR-AMC substrate. Conditions: 15 μM substrate, 0.025 nM Trypsin; for inhibition at 0.1 µM: compound 0.1 μM; for inhibition at 1 µM: compound 1 μM; for inhibition at 10 µM: compound 10 μM; for kinact/KI: 12-point dose-dependence, time-dependent inhibition, duplicate dilutions, read-out: Kinact/KI^App. The method, then:
Bovine trypsin was purchased from Sigma-Aldrich (Cat No. T1426), and 7-amino-4-methylcoumarin (AMC) conjugated peptide H-D-cyclohexylalanine (D-CHA)-AR-AMC was used as the substrate in the assay. The protease activity of trypsin was followed by measuring AMC production by the emission fluorescence intensity of AMC at 460 nm with the excitation at 375 nm, in the same assay buffer as used in the EP assay. The enzyme kinetic characterization studies yielded an average of KM to be 3.9±0.5 μM and the apparent turnover number kcat^app of 33.8±0.4 s^−1 (N=2).
Studies of compound inhibition against T were carried out under the conditions of 15 μM substrate and 0.025 nM Trypsin. Reaction progress curves were collected by reading the FI at 375/460 nm continuously for 1 hour at an interval of 1 minute. Similar to the procedure for Enteropeptidase described above, compounds of formula (I) were screened against Trypsin at 4 different concentrations to obtain the percent of inhibition at 10 μM, 1 μM, 0.1 μM and 0.01 μM, and accurate potencies of selected compounds against Trypsin were derived from detailed 12-point dose-dependence studies for time-dependent inhibitors.
(§1) Representative compounds of the present invention were tested according to the procedures as described in Biological Example 1 and Biological Example 2 above, with results as listed in Table 2 and Table 3, below. Results are reported as the %-inhibition (% Inh) or Kinact/KI value. Variability for the functional assay was typically within 20%. For the column headed Kinact/KI the listed measurement is the result of duplicate dilutions.

The target in experiment [2] is T2, Recombinant full-length human EP (Enteropeptidase) (Homo sapiens, UniProt P98073).
T2 construct: Recombinant full-length human EP (PeproTech, Cat #450-48C); purchased PeproTech 450-48C
As to the kind of experiment: In vitro inhibition potencies against Enteropeptidase (EP), fluorescent peptide GDDDDK-naphthylamine substrate. Type of experiment: biochemical. Conditions: 300 μM substrate, 1.25 nM EP; for inhibition at 0.1 µM: compound 0.1 μM; for inhibition at 1 µM: compound 1 μM; for inhibition at 10 µM: compound 10 μM; for kinact/KI: 12-point dose-dependence, time-dependent inhibition, duplicate dilutions, read-out: kinact/KI^App. As to the method:
In vitro inhibition potencies against Enteropeptidase (EP) Recombinant full-length human EP (PeproTech, Cat #450-48C) was used in this biochemical assay, with a quenched fluorescent labeled peptide GDDDDK-naphthylamine (NA) (Sigma, Cat #G5261) as the substrate in a buffer of 50 mM Tris-HCl pH 7.4, 200 mM NaCl and 0.01% Triton X-100. The enzyme activity was measured by following the formation of the cleavage product […](NA) by monitoring the fluorescence intensity (FI) at excitation/emission wavelengths of 340/410 nm. The steady-state kinetic characterization studies yielded an average of KM to be 412±22 μM and the apparent turnover number kcat^app of 11.8±0.4 s^−1 (N=2).
Compound inhibition studies were carried out under the conditions of 300 μM substrate and 1.25 nM EP. Reaction progress curves were collected by reading the FI at 340/410 nm continuously for 1 hour at an interval of 1 minute.
To screen compounds of formula (I), inhibition was studied at 4 different compound concentrations of 10 μM, 1 μM, 0.1 μM and 0.01 μM. Initial velocity of the reaction was determined, and percent of inhibition was calculated by comparing to the reaction in the absence of compound.
Accurate measurements of the inhibition potencies of selected compounds were studied in a 12-point dose-dependence fashion. […] Compound potency was measured by determining the inactivation rate constant (kobs) following the reaction change from the initial velocity vi to the steady-state velocity vs at various compound concentrations. The inactivation rate constants (kobs), were derived by fitting the reaction progress curves to eq. 1.
where YT is the detection signal of the reaction at time t, vi and vs are the initial and the steady-state velocities of the reaction, t is the reaction time. Y0 is the background signal (when t=0).
Compound binding mechanism was shown by plotting kobs˜[compound]. Hyperbolic fitting to eq. 2
conforms to a two-step binding mechanism as shown in Scheme BIO-1.
The plateau of the curve is the forward step rate constant of the isomerization step k3, KI^app is the inhibitor concentration that leads to half-maximal rate of inhibition of enzyme under the assay conditions. Compound inhibition potency was reported by the value of k3/KI^app.
A linear dependence of eq.3
indicates a one-step binding mechanism as shown in Scheme BIO-2
Slope of the linear fit gives the second-order rate constant of the compound binding k1, which is used to represent the compound inhibition potency.
as §1

T2 sequence (P98073 whole entry): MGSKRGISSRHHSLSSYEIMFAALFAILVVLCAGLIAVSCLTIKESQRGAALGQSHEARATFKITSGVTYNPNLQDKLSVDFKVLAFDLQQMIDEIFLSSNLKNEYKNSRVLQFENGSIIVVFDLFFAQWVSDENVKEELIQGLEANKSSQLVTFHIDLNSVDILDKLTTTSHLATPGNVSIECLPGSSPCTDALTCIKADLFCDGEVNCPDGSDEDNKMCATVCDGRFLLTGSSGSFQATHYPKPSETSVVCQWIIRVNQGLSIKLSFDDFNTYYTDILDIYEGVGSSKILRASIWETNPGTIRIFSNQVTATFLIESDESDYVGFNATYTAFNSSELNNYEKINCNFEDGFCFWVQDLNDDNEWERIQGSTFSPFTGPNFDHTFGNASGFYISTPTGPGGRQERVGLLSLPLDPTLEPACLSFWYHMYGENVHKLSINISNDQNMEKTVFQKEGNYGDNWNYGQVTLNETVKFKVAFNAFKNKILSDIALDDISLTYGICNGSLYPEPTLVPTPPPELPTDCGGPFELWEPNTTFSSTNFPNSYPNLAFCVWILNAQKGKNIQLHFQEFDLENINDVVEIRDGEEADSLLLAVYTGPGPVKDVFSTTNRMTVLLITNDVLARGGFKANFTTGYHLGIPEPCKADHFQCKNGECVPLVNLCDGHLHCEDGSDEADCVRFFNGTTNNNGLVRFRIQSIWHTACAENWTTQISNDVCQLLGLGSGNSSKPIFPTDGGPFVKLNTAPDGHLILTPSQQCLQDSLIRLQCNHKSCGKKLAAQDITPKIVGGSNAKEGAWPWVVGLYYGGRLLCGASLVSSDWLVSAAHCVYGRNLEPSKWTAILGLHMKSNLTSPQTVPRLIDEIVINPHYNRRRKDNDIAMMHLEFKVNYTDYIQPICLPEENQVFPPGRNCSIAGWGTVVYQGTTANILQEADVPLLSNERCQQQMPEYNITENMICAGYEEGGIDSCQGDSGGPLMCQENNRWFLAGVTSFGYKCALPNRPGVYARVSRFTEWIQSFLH

As for `N=C(N)Nc1ccc(C(=O)Oc2ccc(CC(=O)O)n3ncnc23)c(C(F)(F)F)c1` [Compound 20, 2-(8-(4-guanidino-2-(trifluoromethyl)benzoyloxy)-[1,2,4]triazolo [1,5-a]pyridin-5-yl)acetic acid], in experiment [1], the inhibition (as a rule, the drop in the measured response relative to a control, in per cent) at 0.1 µM is 2.3%; the inhibition at 1 µM came out at 16.6%; the inhibition at 10 µM came to 88.7%. Besides, in experiment [2], the inhibition at 0.1 µM stood at 4.1%, the inhibition at 1 µM turned out to be 38.5% and the inhibition at 10 µM was determined as 98.9%.
For the compound `N=C(N)Nc1ccc(C(=O)Oc2ccc(CC(=O)O)n3ncnc23)c2ccoc12` [Compound 24], in experiment [1], the inhibition at 0.1 µM came to 14.6%, the inhibition at 1 µM was found to be 80% and the inhibition at 10 µM was 99.9%. Also, in experiment [2], the inhibition at 0.1 µM was 36.3%, the inhibition at 1 µM is 98.8% and the inhibition at 10 µM came to 100%.
Consider `N=C(N)Nc1ccc(C(=O)Oc2ccc(CC(=O)O)n3ccnc23)cc1` [Compound 9, 2-(8-(4-guanidinobenzoyloxy)imidazo[1,2-a]pyridin-5-yl)acetic acid], for which, in experiment [1], the kinact/KI was found to be 111000 M⁻¹ s⁻¹, the inhibition at 0.1 µM is 96.3%, the inhibition at 1 µM turned out to be 101% and the inhibition at 10 µM was 101%. Further, in experiment [2], the kinact/KI is 210000 M⁻¹ s⁻¹, the inhibition at 0.1 µM is 101%, the inhibition at 1 µM amounted to 100% and the inhibition at 10 µM turned out to be 100%.
As for `N=C(NN)c1ccc(C(=O)Oc2ccc(CC(=O)O)n3ncnc23)cc1` [Compound 39, 2-(8-(4-(hydrazinyl(imino)methyl)benzoyloxy)-[1,2,4]triazolo[1,5-a]pyridin-5-yl)acetic acid], in experiment [1], the inhibition at 0.1 µM came out at 1.6%, the inhibition at 1 µM is 2.8% and the inhibition at 10 µM is 25.5%. In experiment [2], the inhibition at 0.1 µM came out at 0.5%, the inhibition at 1 µM worked out at 12.2% and the inhibition at 10 µM came to 51.8%.
In the case of `N#CNC(=N)c1ccc(C(=O)Oc2ccc(CC(=O)O)n3ncnc23)cc1` [Compound 38, 2-(8-(4-(N-cyanocarbamimidoyl)benzoyloxy)-[1,2,4]triazolo[1,5-a]pyridin-5-yl)acetic acid], in experiment [1], the inhibition at 0.1 µM was -2.1%, the inhibition at 1 µM stood at 2.5% and the inhibition at 10 µM amounted to 35.8%. For the same compound, in experiment [2], the inhibition at 0.1 µM is -1.6%, the inhibition at 1 µM worked out at 1.9% and the inhibition at 10 µM came out at 13.6%.
`N=C(N)Nc1ccc(C(=O)Oc2ccc(CC(=O)NC(CCC(=O)O)(CCC(=O)O)CCC(=O)O)n3ncnc23)cc1` [Compound 7, 4-(2-carboxyethyl)-4-(2-(8-(4-guanidinobenzoyloxy)-[1,2,4]triazolo[1,5-a]pyridin-5-yl)acetamido)heptanedioic acid]: in experiment [1], the inhibition at 0.1 µM is 94.1%, the inhibition at 1 µM worked out at 100% and the inhibition at 10 µM was found to be 100%. Further, in experiment [2], the inhibition at 0.1 µM is 37.8%, the inhibition at 1 µM was 100% and the inhibition at 10 µM turned out to be 100%.
With `N=C(N)Nc1ccc(C(=O)Oc2ccc(CCC(=O)O)n3ncnc23)cc1` [Compound 3, 3-(8-(4-guanidinobenzoyloxy)-[1,2,4]triazolo[1,5-a]pyridin-5-yl)propanoic acid], in experiment [1], the inhibition at 0.1 µM came out at 99.8%, the inhibition at 1 µM stood at 100% and the inhibition at 10 µM was found to be 100%. In experiment [2], the inhibition at 0.1 µM amounted to 35%, the inhibition at 1 µM came to 101% and the inhibition at 10 µM amounted to 100%.
`CS(=O)(=O)NC(=O)Cc1ccc(OC(=O)c2ccc(NC(=N)N)cc2)c2ncnn12` [Compound 8, 5-(2-(methylsulfonamido)-2-oxoethyl)-[1,2,4]triazolo[1,5-a]pyridin-8-yl4-guanidinobenzoate]: in experiment [1], the kinact/KI is 163000 M⁻¹ s⁻¹, the inhibition at 0.1 µM worked out at 98.8%, the inhibition at 1 µM was 100% and the inhibition at 10 µM came to 99.9%. Besides, in experiment [2], the kinact/KI came to 181000 M⁻¹ s⁻¹, the inhibition at 0.1 µM turned out to be 101%, the inhibition at 1 µM is 100% and the inhibition at 10 µM stood at 100%.
Turning to `COc1cc(C(=O)Oc2ccc(CC(=O)O)n3ncnc23)ccc1NC(=N)N` [Compound 12, 2-(8-(4-guanidino-3-methoxybenzoyloxy)-[1,2,4]triazolo[1,5-a]pyridin-5-yl)acetic acid], in experiment [1], the inhibition at 0.1 µM amounted to 13.8%, the inhibition at 1 µM was found to be 72.4% and the inhibition at 10 µM stood at 99.9%. Further, in experiment [2], the inhibition at 0.1 µM turned out to be 20.8%, the inhibition at 1 µM was 87.1% and the inhibition at 10 µM stood at 101%.
With `C#CCOCC#Cc1cc(NC(=N)N)ccc1C(=O)Oc1ccc(CC(=O)O)n2ncnc12` [Compound 43, 2-(8-((4-Guanidino-2-(3-(prop-2-yn-1-yloxy)prop-1-yn-1-yl)benzoyl)oxy)-[1,2,4]triazolo[1,5-a]pyridin-5-yl)acetic acid], in experiment [1], the kinact/KI worked out at 40100 M⁻¹ s⁻¹, the inhibition at 0.1 µM amounted to 76.1%, the inhibition at 1 µM was found to be 99.5% and the inhibition at 10 µM is 100%. In experiment [2], the kinact/KI is 12300 M⁻¹ s⁻¹, the inhibition at 0.1 µM came to 56.5%, the inhibition at 1 µM amounted to 99.9% and the inhibition at 10 µM turned out to be 99.9%.
Turning to `N=C(N)Nc1ncc(C(=O)Oc2ccc(CC(=O)NC(CC(=O)O)C(=O)O)n3ccnc23)cn1` (stereo not drawn) [Compound 31, 2-(2-(8-(2-guanidinopyrimidine-5-carbonyloxy)imidazo[1,2-a]pyridin-5-yl)acetamido)succinic acid], in experiment [1], the inhibition at 0.1 µM was 95.7%, the inhibition at 1 µM amounted to 99.9% and the inhibition at 10 µM is 100%. In experiment [2], the inhibition at 0.1 µM was found to be 85.8%, the inhibition at 1 µM was determined as 99.7% and the inhibition at 10 µM worked out at 99.8%.
Consider `N=C(N)Nc1ccc(C(=O)Oc2ccc(CC(=O)N(CC(=O)O)CC(=O)O)n3ncnc23)cc1` [Compound 6, 2,2′-(2-(8-(4-guanidinobenzoyloxy)-[1,2,4]triazolo[1,5-a]pyridin-5-yl)acetamido)diacetic acid], for which, in experiment [1], the inhibition at 0.1 µM stood at 89.6%, the inhibition at 1 µM worked out at 99.9% and the inhibition at 10 µM came out at 100%. In experiment [2], the inhibition at 0.1 µM was found to be 20.9%, the inhibition at 1 µM was 72.9% and the inhibition at 10 µM came to 101%.
With `C/C(=N\O)Nc1ccc(C(=O)Oc2ccc(CC(=O)O)n3ncnc23)cc1` [Compound 40, (E)-2-(8-(4-(N′-hydroxyacetimidamido)benzoyloxy)-[1,2,4]triazolo[1,5-a]pyridin-5-yl)acetic acid], in experiment [1], the inhibition at 0.1 µM was -8%, the inhibition at 1 µM was -0.4% and the inhibition at 10 µM was found to be 10.1%. In experiment [2], the inhibition at 0.1 µM is -10.7%, the inhibition at 1 µM is -10.1% and the inhibition at 10 µM is -10.8%.

Source of the values: patent publication US20220281866A1, “5,8-DISUBSTITUTED-[1,2,4]TRIAZOLO[1,5-A]PYRIDINYL AND 5,8-DISUBSTITUTED-IMIDAZO[1,2-A]PYRIDINE DERIVATIVES USEFUL AS INHIBITORS OF ENTEROPEPTIDASE” (Janssen Pharmaceutica NV, priority 2019, published 2022).
